PMC6061170, “Synthesis and biological investigations of 3β-aminotropane arylamide derivatives with atypical antipsychotic profile” (Medicinal Chemistry Research, 2018)
“And” between values parts separate entries of the source, which are not always exact repeats. Equal values may be shown once. Where a name gives a salt, the structure may show the parent alone. Read-outs that look alike come from different tables or passages of the source.

What was measured:
[1] = tested on: CD-1 mice; experiment: MK-801-induced hyperlocomotor activity; details: for effect on MK-801-induced hyperlocomotor activity: 5 mg/kg and 10 mg/kg i.p.
[2] = molecular target: T1, serotonin 5-HT2A receptors (Rattus norvegicus, UniProt P14842); set-up: method as in Słowiński et al. 2011, 2013; Stefanowicz et al. 2016; details: earlier lead structures, Fig. 1/Fig. 2; ref Słowiński et al. 2011, 2013; Stefanowicz et al. 2016; cited from earlier work
T1 construct: from tissue; host or cells: rat brain tissues

[3] = molecular target: dopamine D2 receptors (Rattus norvegicus, UniProt P61169); experiment: Radioligand binding assay, D2 receptors
[4] = tested on: CD-1 mice; experiment: d-Amphetamine-induced hyperlocomotor activity
[5] = tested on: Albino Swiss mice; experiment: Four-plate test
[6] = tested on: Albino Swiss mice; experiment: Forced swim test; details: for Immobility time (s) Mean ± SEM: last 4 min of session
[7] = molecular target: T2, serotonin 5-HT1A receptors (Rattus norvegicus, UniProt P19327); experiment: Radioligand binding assay, 5-HT1A receptors; details: for IC50: rat brain tissues, read-out: 5-HT1A IC50 [nM] ± SEM
T2 construct: from tissue; host or cells: rat brain tissues
T2 sequence (P19327 1-422): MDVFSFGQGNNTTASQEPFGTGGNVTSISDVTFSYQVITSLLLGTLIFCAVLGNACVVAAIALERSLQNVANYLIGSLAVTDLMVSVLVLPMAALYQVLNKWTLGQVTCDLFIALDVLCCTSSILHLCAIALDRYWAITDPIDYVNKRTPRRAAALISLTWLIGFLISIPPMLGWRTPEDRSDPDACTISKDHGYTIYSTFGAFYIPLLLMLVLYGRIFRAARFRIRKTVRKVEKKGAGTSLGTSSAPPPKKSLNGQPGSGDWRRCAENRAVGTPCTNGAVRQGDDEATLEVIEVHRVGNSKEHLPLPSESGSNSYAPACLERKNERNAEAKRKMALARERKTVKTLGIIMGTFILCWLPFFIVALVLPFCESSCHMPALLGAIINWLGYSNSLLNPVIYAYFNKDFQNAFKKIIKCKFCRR
Method: All compounds were tested for their affinities for 5-HT1A, 5-HT2A, and D2 receptors according to previously described procedures (Stefanowicz et al. [2016]).
Competition binding studies were performed according to a previously described procedure in rat brain tissues (Stefanowicz et al. [2016]).

[8] = tested on: CD-1 mice; experiment: Spontaneous locomotor activity; format: in vivo; details: for decrease of spontaneous locomotor activity: 10 mg/kg
[9] = molecular target: T1, serotonin 5-HT2A receptors; experiment: Radioligand binding assay, 5-HT2A receptors; details: for IC50: read-out: 5-HT2A IC50 [nM] ± SEM
[10] = compound 5 mg/kg i.p. + d-amphetamine 2.5 mg/kg s.c.
[11] = compound 10 mg/kg i.p. + d-amphetamine 2.5 mg/kg s.c.
[12] = 2.5 mg/kg i.p. 30 min before test
[13] = 5 mg/kg i.p. 30 min before test
[14] = 10 mg/kg i.p. 30 min before test
[15] = 1.25 mg/kg i.p. 30 min before test
[16] = compound 5 mg/kg i.p. 30 min + MK-801 0.2 mg/kg
[17] = compound 10 mg/kg i.p. 30 min + MK-801 0.2 mg/kg

Chain of dopamine D2 receptors (P61169 1-415 isoform P61169-2): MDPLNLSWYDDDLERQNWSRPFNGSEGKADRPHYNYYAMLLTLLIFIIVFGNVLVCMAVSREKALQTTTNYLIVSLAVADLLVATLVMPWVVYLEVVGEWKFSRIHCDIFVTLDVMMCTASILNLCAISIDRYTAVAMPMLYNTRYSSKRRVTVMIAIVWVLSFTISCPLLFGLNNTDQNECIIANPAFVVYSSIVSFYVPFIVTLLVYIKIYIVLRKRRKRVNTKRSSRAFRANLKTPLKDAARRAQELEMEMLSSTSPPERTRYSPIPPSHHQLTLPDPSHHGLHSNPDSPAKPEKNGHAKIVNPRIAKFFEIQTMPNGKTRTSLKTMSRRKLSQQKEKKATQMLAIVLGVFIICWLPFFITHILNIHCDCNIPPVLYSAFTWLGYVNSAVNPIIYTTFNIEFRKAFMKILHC
T1 sequence (P14842 whole entry): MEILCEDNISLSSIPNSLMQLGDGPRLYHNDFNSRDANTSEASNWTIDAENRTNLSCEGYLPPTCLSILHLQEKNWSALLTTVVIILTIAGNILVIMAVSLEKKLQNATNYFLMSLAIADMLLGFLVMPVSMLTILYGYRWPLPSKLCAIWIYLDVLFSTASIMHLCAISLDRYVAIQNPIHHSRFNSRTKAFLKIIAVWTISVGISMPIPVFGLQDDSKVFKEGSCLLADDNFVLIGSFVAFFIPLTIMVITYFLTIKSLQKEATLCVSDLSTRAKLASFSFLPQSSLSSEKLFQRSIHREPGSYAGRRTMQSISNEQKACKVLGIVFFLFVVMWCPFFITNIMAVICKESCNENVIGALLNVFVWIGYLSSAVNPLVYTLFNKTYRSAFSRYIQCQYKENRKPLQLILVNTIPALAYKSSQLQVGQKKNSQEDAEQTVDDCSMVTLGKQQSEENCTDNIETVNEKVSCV

SMILES	Ki [3] [nM]	Number of crossings/60 min Mean ± SEM [4, 10]	Number of crossings/60 min Mean ± SEM [4, 11]	Number of punished crossings /1 min Mean ± SEM [5, 12] [crossings/1 min]	Number of punished crossings /1 min Mean ± SEM [5, 13] [crossings/1 min]	Number of punished crossings /1 min Mean ± SEM [5, 14]	Immobility time (s) Mean ± SEM [6, 15] [s]	Immobility time (s) Mean ± SEM [6, 12] [s]	Immobility time (s) Mean ± SEM [6, 13]	effect on MK-801-induced hyperlocomotor activity [1]	Number of crossings/60 min Mean ± SEM [1, 16]	Number of crossings/60 min Mean ± SEM [1, 17]	Ki [7] [nM]	IC50 [7] [nM]	Number of crossings/60 min Mean ± SEM [8, 12]	Number of crossings/60 min Mean ± SEM [8, 13]	decrease of spontaneous locomotor activity [8]	IC50 ([9]; rat brain tissues) [nM]	other results
C[C@]12N[C@H](Cc3ccccc31)c1ccccc12 [MK-801, reference compound]	–	–	–	–	–	–	–	–	–	–	–	–	–	–	–	–	–	–	Number of crossings/60 min Mean ± SEM ([1]; MK-801 alone 0.2 mg/kg i.p. 15 min before test): 4708.1 ± 522.1; p < 0.01 vs. contr crossings/60 min and 6247.1 ± 1063.8; p < 0.01 vs. contr crossings/60 min and 8757.9 ± 1378; p < 0.00001 vs. contr crossings/60 min and 6329.9 ± 1012.5; p < 0.05 vs. contr crossings/60 min
Cc1cccc(CN2C3CCC2CC(NC(=O)c2ccc4ccccc4c2)C3)c1 (centres unmarked) [R = -CH3]	–	–	–	–	–	–	–	–	–	–	–	–	–	–	–	–	–	–	Ki [2]: 231 nM
Nc1ccccc1CN1C2CCC1CC(NC(=O)c1ccc3ccccc3c1)C2 (centres unmarked) [Compound 19a]	41.5 ± 1.5	4328.6 ± 1146.8 crossings/60 min	950.0 ± 411.7; p < 0.01 vs. amph.; ns vs. contr F(3,35) = 5.6910; p < 0.01 crossings/60 min	3.2 ± 0.5	1.1 ± 0.2	3.2 ± 0.5 F(3,33) = 5.6670; p < 0.01 crossings/1 min	120.00 ± 16.6	128.89 ± 12.3	96.56 ± 16.2; p < 0,01 F(3,31) = 4.5279; p < 0.01 s	significantly reduced	2915.4 ± 580.2; p < 0.001 vs. MK; ns vs. contr F(2,27) = 16.679; p < 0.0001 crossings/60 min	808.7 ± 66.3; p < 0.0001 vs. Mk; p < 0.05 vs. contr F(2,20) = 23.813; p < 0.001 crossings/60 min	53 ± 2	159 ± 5.5	1634.4 ± 511.9 F(2,27) = 0.7417; NS crossings/60 min	1480.4 ± 302.3 crossings/60 min	about 70%	173 ± 19.3	IC50 ([3]; rat brain tissues, read-out: D2 IC50 [nM] ± SEM): 209 ± 5.5 nM; activity in d-amphetamine-induced hyperlocomotor activity test ([4]; i.p.): active in this test only at a dose of 10 mg/kg i.p.; decrease of immobility time vs. respective control group ([6]; 5 mg/kg i.p.): about 43%; melting point: 172.7 to 173.3 °C; Number of crossings/60 min Mean ± SEM ([1]; compound 1.25 mg/kg i.p. 30 min + MK-801 0.2 mg/kg): 4646.4 ± 675.6; ns, ns crossings/60 min; Number of crossings/60 min Mean ± SEM ([1]; compound 2.5 mg/kg i.p. 30 min + MK-801 0.2 mg/kg): 3832.0 ± 991.3; ns, ns F(3,33) = 5.2088; p < 0.01 crossings/60 min; Number of crossings/60 min Mean ± SEM [8, 14]: 491.6 ± 126.5 F(2,26) = 5.3557; p < 0.05 crossings/60 min; Ki [9]: 46.8 ± 5.5 nM
Cc1ccc(CN2C3CCC2CC(NC(=O)c2ccc4ccccc4n2)C3)cc1 (stereo not drawn) [Compound 12i, N-[8-(4-methylbenzyl)-8-azabicyclo[3.2.1]oct-3β-yl)]-quinoline-2-carboxamide oxalate]	7.4 ± 0.4	1771.3 ± 470.4; p < 0.01 vs. amph.; ns vs. contr crossings/60 min	2046.2 ± 63.1; p < 0.01 vs. amph.; ns vs. contr F(3,34) = 6.5110; p < 0.01 crossings/60 min	3.1 ± 0.3	2.3 ± 0.4	1.7 ± 0.4; p < 0.05 F(3,35) = 4.2954; p < 0.05 crossings/1 min	132.00 ± 2.93	149.89 ± 12.7	219.67 ± 1.43; p < 0.05 F(3,26) = 7.5750; p < 0.001 s	significantly reduced	2432.8 ± 526.6; ns vs. contr p < 0.01 vs. MK crossings/60 min	805.4 ± 147.2 ns vs. contr p < 0.0001 vs. MK F(3,30) = 14.206; p < 0.0001 crossings/60 min	43.5 ± 1.3	131 ± 4.4	2676.0 ± 336.7; p < 0.01 crossings/60 min	1135.8 ± 184.3 F(3,34) = 8.8733; p < 0.001 crossings/60 min	about 70%	> 10000	IC50 [3]: 37 ± 2.1 nM; decrease of locomotor hyperactivity vs. respective d-amphetamine group ([4]; doses of 5 and 10 mg/kg i.p.): 60–86%; Number of crossings/60 min Mean ± SEM [8, 15]: 1573.6 ± 149.3 crossings/60 min; Ki ([9]; rat brain tissues, read-out: 5-HT2A Ki [nM] ± SEM): > 10000 nM
